Source: ChEMBL document CHEMBL3885881, “DrugMatrix”

Species on record: Rattus norvegicus
Assay: DrugMatrix - Regimen: Daily Repeat
Format: toxicity, organism-based, Sprague-Dawley
Set-up: regimen Daily Repeat, gender Male, age 6-8 weeks
Details: in vivo, po, route oral GAVAGE, vehicle .5 % CMC; for ABSOLUTE BASOPHIL / ABSOLUTE EOSINOPHIL / ABSOLUTE LYMPHOCYTE / ABSOLUTE MONOCYTE / ABSOLUTE SEGMENTED NEUTROPHIL / BASOPHIL / EOSINOPHIL / ERYTHROCYTE COUNT / HEMATOCRIT / HEMOGLOBIN / LEUKOCYTE COUNT / LYMPHOCYTE / MEAN CORPUSCULAR HEMOGLOBIN / MEAN CORPUSCULAR HEMOGLOBIN CONCENTRATION / MEAN CORPUSCULAR VOLUME / MONOCYTE / NEUTROPHIL / NUCLEATED RED BLOOD CELLS / PLATELET COUNT: tissue Blood; for ALANINE AMINOTRANSFERASE / ALBUMIN / ALKALINE PHOSPHATASE / ASPARTATE AMINOTRANSFERASE / BLOOD UREA NITROGEN / CARBON DIOXIDE / CHLORIDE / CHOLESTEROL / CREATINE PHOSPHOKINASE / CREATININE / GLUCOSE / LACTATE DEHYDROGENASE / LIPASE / PHOSPHORUS / POTASSIUM / SODIUM / TOTAL BILIRUBIN / TOTAL PROTEIN / URIC ACID: tissue Plasma
[1] = 0 mg/kg, 72 h, dose level Control, time 3 day
[2] = 0 mg/kg, 120 h, dose level Control, time 5 day
[3] = 500 mg/kg, 72 h, dose level Low, time 3 day

CC(C)(Sc1cc(C(C)(C)C)c(O)c(C(C)(C)C)c1)Sc1cc(C(C)(C)C)c(O)c(C(C)(C)C)c1 [PROBUCOL]
ABSOLUTE BASOPHIL [1]: 0 CELLS/uL | ABSOLUTE EOSINOPHIL [1]: 222.83 CELLS/uL | ABSOLUTE LYMPHOCYTE [1]: 14453 CELLS/uL | ABSOLUTE MONOCYTE [1]: 0 CELLS/uL | ABSOLUTE SEGMENTED NEUTROPHIL [1]: 1490.83 CELLS/uL | BASOPHIL [1]: 0% | EOSINOPHIL [1]: 1.33% | ERYTHROCYTE COUNT [1]: 5.76 x10E6/uL | HEMATOCRIT [1]: 36.52% | HEMOGLOBIN [1]: 13.45 G/DL | LEUKOCYTE COUNT [1]: 16.17 x10E3/uL | LYMPHOCYTE [1]: 89.33% | MEAN CORPUSCULAR HEMOGLOBIN [1]: 23.37 pg | MEAN CORPUSCULAR HEMOGLOBIN CONCENTRATION [1]: 36.85 G/DL | MEAN CORPUSCULAR VOLUME [1]: 63.47 fL | MONOCYTE [1]: 0% | NEUTROPHIL [1]: 9.33% | NUCLEATED RED BLOOD CELLS [1]: 0 /100WBC | PLATELET COUNT [1]: 1239.5 x10E3/uL | ALANINE AMINOTRANSFERASE [1]: 43.83 u/L | ALBUMIN [1]: 4.27 G/DL | ALKALINE PHOSPHATASE [1]: 398.83 u/L | ASPARTATE AMINOTRANSFERASE [1]: 81.17 u/L | BLOOD UREA NITROGEN [1]: 17.67 mg/dL | CARBON DIOXIDE [1]: 27.5 mmol/L | CHLORIDE [1]: 99.17 MEQ/L | CHOLESTEROL [1]: 74 mg/dL | CREATINE PHOSPHOKINASE [1]: 331.5 u/L | CREATININE [1]: 0.2 mg/dL | GLUCOSE [1]: 171.33 mg/dL | LACTATE DEHYDROGENASE [1]: 241.67 u/L | LIPASE [1]: 9.5 u/L | PHOSPHORUS [1]: 12.25 mg/dL | POTASSIUM [1]: 6.33 MEQ/L | SODIUM [1]: 141.28 MEQ/L | TOTAL BILIRUBIN [1]: 0.15 mg/dL | TOTAL PROTEIN [1]: 5.98 G/DL | URIC ACID [1]: 1.63 mg/dL | ABSOLUTE BASOPHIL [2]: 0 CELLS/uL | ABSOLUTE EOSINOPHIL [2]: 148.67 CELLS/uL | ABSOLUTE LYMPHOCYTE [2]: 16020.5 CELLS/uL | ABSOLUTE MONOCYTE [2]: 29.17 CELLS/uL | ABSOLUTE SEGMENTED NEUTROPHIL [2]: 1468.33 CELLS/uL | BASOPHIL [2]: 0% | EOSINOPHIL [2]: 1% | ERYTHROCYTE COUNT [2]: 5.78 x10E6/uL | HEMATOCRIT [2]: 35.77% | HEMOGLOBIN [2]: 13.4 G/DL | LEUKOCYTE COUNT [2]: 17.67 x10E3/uL | LYMPHOCYTE [2]: 90.5% | MEAN CORPUSCULAR HEMOGLOBIN [2]: 23.22 pg | MEAN CORPUSCULAR HEMOGLOBIN CONCENTRATION [2]: 37.47 G/DL | MEAN CORPUSCULAR VOLUME [2]: 61.92 fL | MONOCYTE [2]: 0.17% | NEUTROPHIL [2]: 8.33% | NUCLEATED RED BLOOD CELLS [2]: 0.17 /100WBC | PLATELET COUNT [2]: 1255.5 x10E3/uL | ALANINE AMINOTRANSFERASE [2]: 46.5 u/L | ALBUMIN [2]: 4.38 G/DL | ALKALINE PHOSPHATASE [2]: 336 u/L | ASPARTATE AMINOTRANSFERASE [2]: 76.5 u/L | BLOOD UREA NITROGEN [2]: 20 mg/dL | CARBON DIOXIDE [2]: 27.5 mmol/L | CHLORIDE [2]: 101 MEQ/L | CHOLESTEROL [2]: 71.33 mg/dL | CREATINE PHOSPHOKINASE [2]: 231.83 u/L | CREATININE [2]: 0.37 mg/dL | GLUCOSE [2]: 168.83 mg/dL | LACTATE DEHYDROGENASE [2]: 174 u/L | LIPASE [2]: 8.67 u/L | PHOSPHORUS [2]: 11.48 mg/dL | POTASSIUM [2]: 6.82 MEQ/L | SODIUM [2]: 143.8 MEQ/L | TOTAL BILIRUBIN [2]: 0.2 mg/dL | TOTAL PROTEIN [2]: 5.98 G/DL | URIC ACID [2]: 1.83 mg/dL | ABSOLUTE BASOPHIL [3]: 0 CELLS/uL | ABSOLUTE EOSINOPHIL [3]: 297 CELLS/uL | ABSOLUTE LYMPHOCYTE [3]: 13431.33 CELLS/uL | ABSOLUTE MONOCYTE [3]: 0 CELLS/uL | ABSOLUTE SEGMENTED NEUTROPHIL [3]: 1238.33 CELLS/uL | BASOPHIL [3]: 0% | EOSINOPHIL [3]: 2% | ERYTHROCYTE COUNT [3]: 5.69 x10E6/uL | HEMATOCRIT [3]: 35.67% | HEMOGLOBIN [3]: 13.3 G/DL | LEUKOCYTE COUNT [3]: 14.97 x10E3/uL | LYMPHOCYTE [3]: 89.67% | MEAN CORPUSCULAR HEMOGLOBIN [3]: 23.37 pg | MEAN CORPUSCULAR HEMOGLOBIN CONCENTRATION [3]: 37.3 G/DL | MEAN CORPUSCULAR VOLUME [3]: 62.7 fL | MONOCYTE [3]: 0% | NEUTROPHIL [3]: 8.33% | NUCLEATED RED BLOOD CELLS [3]: 0 /100WBC | PLATELET COUNT [3]: 1188.33 x10E3/uL | ALANINE AMINOTRANSFERASE [3]: 35.33 u/L | ALBUMIN [3]: 4.5 G/DL | ALKALINE PHOSPHATASE [3]: 363.33 u/L | ASPARTATE AMINOTRANSFERASE [3]: 79 u/L | BLOOD UREA NITROGEN [3]: 17.33 mg/dL | CARBON DIOXIDE [3]: 26.33 mmol/L | CHLORIDE [3]: 100 MEQ/L | CHOLESTEROL [3]: 67.33 mg/dL | CREATINE PHOSPHOKINASE [3]: 213 u/L | CREATININE [3]: 0.25 mg/dL | GLUCOSE [3]: 158 mg/dL | LACTATE DEHYDROGENASE [3]: 122 u/L | LIPASE [3]: 8.33 u/L | PHOSPHORUS [3]: 12.37 mg/dL | POTASSIUM [3]: 6.67 MEQ/L | SODIUM [3]: 142.2 MEQ/L | TOTAL BILIRUBIN [3]: 0.13 mg/dL | TOTAL PROTEIN [3]: 6.23 G/DL | URIC ACID [3]: 1.73 mg/dL
